The values that follow come from EP4786455A1, “NOVEL PHTHALAZINE DERIVATIVE COMPOUND AS SOS1 INHIBITOR, AND USE THEREOF” (Hanmi Pharmaceutical Co., Ltd., priority 2023, dated 2025).

In general, IC50 refers to the concentration that gives 50% inhibition. High values mean a need for much substance, low ones inhibition by little substance.

The assay concerns the target T1, SOS1 (Homo sapiens, UniProt Q07889).
T1 construct: comprising amino acid residues 564-1049 corresponding to the catalytic domain; purchased Reaction Biology Corp. SOS1-Strep #MSC-11-502; GST-KRAS G12C #MSC-11-538
T1 sequence (Q07889 564-1049): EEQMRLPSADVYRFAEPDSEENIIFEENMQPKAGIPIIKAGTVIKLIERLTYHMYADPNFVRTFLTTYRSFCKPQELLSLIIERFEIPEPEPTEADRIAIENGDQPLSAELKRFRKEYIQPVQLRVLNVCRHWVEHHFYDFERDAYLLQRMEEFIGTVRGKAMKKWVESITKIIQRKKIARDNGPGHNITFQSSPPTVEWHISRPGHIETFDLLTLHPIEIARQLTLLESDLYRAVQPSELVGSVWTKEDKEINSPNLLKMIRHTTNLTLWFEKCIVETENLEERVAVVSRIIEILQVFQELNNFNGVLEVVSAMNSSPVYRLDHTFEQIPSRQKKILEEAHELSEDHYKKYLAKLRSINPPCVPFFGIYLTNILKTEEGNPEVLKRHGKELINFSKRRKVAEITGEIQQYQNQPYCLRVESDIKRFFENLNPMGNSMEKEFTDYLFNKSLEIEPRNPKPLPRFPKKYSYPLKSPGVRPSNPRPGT
Briefly: Inhibitory activity on SOS1-mediated GTP exchange (HTRF / TR-FRET nucleotide exchange assay on KRAS G12C). It counts as biochemical. The note with it: SOS1-mediated GTP exchange on GST-KRAS G12C (residues 2-169); SOS1-Strep catalytic domain (564-1049); GTP-DY-647P1; HTRF signal; 5-point concentration series up to 1,000 nM. As for the experimental part: To evaluate whether the SOS1-mediated nucleotide exchange activity on KRAS G12C is inhibited by the compounds of the above Examples, a homogeneous time-resolved fluorescence (homogenous time-resolved fluorescence, HTRF) assay was performed using GST-KRAS G12C (#MSC-11-538) and SOS1-Strep (#MSC-11-502) obtained from Reaction Biology Corp. (USA, MA). The activity of SOS1 was determined by measuring the amount of GTP bound to the KRAS G12C protein based on the principle of time-resolved fluorescence resonance energy transfer (time-resolved fluorescence energy transfer, TR-FRET). Terbium (Terbium) conjugated to an anti-GST antibody bound to the GST tag of the GST-KRAS G12C protein served as a FRET donor, and GTP bound to the KRAS G12C protein was labeled with the fluorophore DY-647P1, serving as a FRET acceptor. Based on this principle, a higher HTRF or FRET signal is observed as more GTP is bound to KRAS G12C due to the SOS1-mediated exchange reaction in the assay.
In summary, a GST-labeled KRAS G12C protein (comprising amino acid residues 2-169), a […] SOS1 protein (comprising amino acid residues 564-1049 corresponding to the catalytic domain), an anti-GST antibody, labeled nucleotide GTP-DY-647P1, and the test compound were mixed in a buffer solution containing 20 mM HEPES (pH 7.4), 150 mM NaCl, 5 mM MgCl2, 1 mM dithiothreitol (DTT), 0.05% BSA, and 0.0025% NP40. The mixture was dispensed into a 384-well plate, incubated at room temperature, and the HTRF signal was measured using a PHERAstar microplate reader (BMG Labtech). The excitation wavelength was 337 nm, and emission was measured at 620/665 nm. A background signal value was determined from fluorescence measurements obtained in the absence of SOS1 protein and was subtracted from all measured HTRF values. A control value was determined from fluorescence measurements obtained in the absence of the synthesized compounds and was set as the 100% reference. Fluorescence signals were measured at compound concentrations of 0.1, 1, 10, 100, and 1,000 nM (5 points, 10-fold) or 1.6, 8, 40, 200, and 1,000 nM (5 points, 5-fold). The 50% inhibitory concentration (IC50) values of the compounds were calculated using GraphPad Prism.
IC50 values were denoted as +++ when 50 nM or less, ++ when greater than 50 nM and 100 nM or less, and + when greater than 100 nM.

With `CNc1cc2c(N[C@H](C)c3cccc(C#N)c3C)nnc(C)c2cc1C(=O)N1CCCOCC1` [Example 24, (R)-2-methyl-3-(1-((4-methyl-7-(methylamino)-6-(1,4-oxazepane-4-carbonyl)phthalazin-1-yl)amino)ethyl)benzonitrile], the half-maximal inhibitory concentration (IC50) was not above 50 nM.

For `CNc1cc2c(N[C@H](C)c3cc(N)cc(C(F)(F)F)c3)nnc(C)c2cc1C(=O)N1CCOCC1` [Example 25, (R)-(1-((1-(3-amino-5-(trifluoromethyl)phenyl)ethyl)amino)-4-methyl-7-(methylamino)phthalazin-6-yl)(morpholino)methanone], the IC50 is not above 50 nM.

As to `CNc1cc2c(N[C@H](C)c3cc(N)cc(C(F)F)c3F)nnc(C)c2cc1C(=O)N1CCOCC1` [Example 26, (R)-(1-((1-(5-amino-3-(difluoromethyl)-2-fluorophenyl)ethyl)amino)-4-methyl-7-(methylamino)phthalazin-6-yl)(morpholino)methanone], the IC50 is not above 50 nM.

The molecule `CNc1cc2c(N[C@H](C)c3cccc(C(F)(F)CO)c3)nnc(C)c2cc1C(=O)N1CCOCC1` [Example 27, (R)-(1-((1-(3-(1,1-difluoro-2-hydroxyethyl)phenyl)ethyl)amino)-4-methyl-7-(methylamino)phthalazin-6-yl)(morpholino)methanone] showed an IC50 not above 50 nM.

For the molecule `COc1cc2c(N[C@H](C)c3cccc(C#N)c3C)nnc(C)c2cc1CN1CCOCC1` [Example 28, (R)-3-(1-((7-methoxy-4-methyl-6-(morpholinomethyl)phthalazin-1-yl)amino)ethyl)-2-methylbenzonitrile], the IC50 is not above 50 nM.

In turn, `CNc1cc2c(N[C@H](C)c3cccc(C#N)c3C)nnc(C)c2cc1CN1CCOCC1` [Example 29, (R)-2-methyl-3-(1-((4-methyl-7-(methylamino)-6-(morpholinomethyl)phthalazin-1-yl)amino)ethyl)benzonitrile] had an IC50 not above 50 nM.

On to `Cc1c(C#N)cccc1[C@@H](C)Nc1nnc(C)c2cc(CN3CCOCC3)c(NC3CCCC3)cc12` [Example 30, (R)-3-(1-((7-(cyclopentylamino)-4-methyl-6-(morpholinomethyl)phthalazin-1-yl)amino)ethyl)-2-methylbenzonitrile], for which the half-inhibitory concentration (IC50) was not above 50 nM.

For `Cc1c(C#N)cccc1[C@@H](C)Nc1nnc(C)c2cc(CN3CCN(C4CC4)CC3)c(NC3CCCC3)cc12` [Example 31, (R)-3-(1-((7-(cyclopentylamino)-6-((4-cyclopropylpiperazin-1-yl)methyl)-4-methylphthalazin-1-yl)amino)ethyl)-2-methylbenzonitrile], the IC50 is not above 50 nM.

Take `COc1cc2c(N[C@H](C)c3cccc(C#N)c3C)nnc(C)c2cc1C(=O)N1CCOCC1` [Example 32, (R)-3-(1-((7-methoxy-4-methyl-6-(morpholine-4-carbonyl)phthalazin-1-yl)amino)ethyl)-2-methylbenzonitrile]: the IC50 is not above 50 nM.

Molecule `Cc1c(C#N)cccc1[C@@H](C)Nc1nnc(C)c2cc(C(=O)N3CCOCC3)c(NC3CCCC3)cc12` [Example 33] came in with an IC50 not above 50 nM.
